# Like-named read-outs stand apart in the source and are kept apart here.
# What was measured:
# Format in all cases: biochemical
# MCL-1 = experiment: In vitro transcription-translation (IVTT) assay, MCL-1 reporter; settings: HeLa S3 lysate, read-out: MCL1 IC50
# How it was run: (§1)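 Reporter: mCherry, P2A, then 3×FLAG-target peptide-sfGFP fusion, IRES-initiated; HeLa S3 lysate IVTT; cpd dilutions 30 μM−0.1 μM half-log in 100% DMSO (dilution-plate conc); DNA added last; 2 h, 30° C; PBS quench.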
# CCNE1 [1] = experiment: In vitro transcription-translation (IVTT) assay, CCNE1 reporter; settings: HeLa S3 lysate, sfGFP/mCherry ratio
# Method: (§2) In vitro transcription-translation assay setup: Each assay includes a master mix containing lysate and shared components, a 96-well plate containing compound titrations for testing, a 96-well DNA plate with reporter constructs to be tested, 96-well skirted PCR plates, and 96-well flat-bottom, black, fluorescent assay plates. Reaction materials setup: (A) Master mix—15 mL conical tube (3 mL of HeLa S3 Lysate described above; 0.6 mL of ThermoFisher Accessory Proteins (#88882); 1.2 ml of ThermoFisher Reaction Mix (#88882); 0.54 mL of nuclease-free Water); (B) 96-Well Master Mix+Compound Plate (Half-log dilutions (30 μM−0.1 μM) of 4 compounds of interest are prepared in 100% DMSO); 96-Well DNA Plate (Five DNA constructs are plated into single columns within the plate. Row 1 of the column contains nuclease free H2O, all other wells contain 110 ng/μL plasmid DNA). Reactions are started by mixing 155 μL of master mix and 3.5 μL of compound serial dilutions, then 9.1 μL of master mix+compound mixture is aliquoted across 5 96-well plates. Reactions begin with final addition of 2 μL of DNA for a 11.1 μL reaction volume in each well. The entire plate is sealed, and incubated for 2 hrs at 30° C. After 2 hrs, quench the assay using 45 μL of PBS, and transfer 50 μL to a flat-bottom black microplate Quantify the sfGFP and mCherry signals from each well on each plate, taking 3 reads of each plate, and perform data analysis below.
# (§3) In vitro transcription-translation assay data analysis: Each plate is read three times in channels for both sfGFP and mCherry signals. The average signal across these 3 reads is then calculated for further analysis. Control wells containing no DNA reporter are subtracted from reporter wells in the same column to remove auto-fluorescence of the lysate. Then, the ratio of sfGFP/mCherry is calculated per well, and these ratios are averaged across the triplicate experiments on the same plate. Finally, the ratio of each titration concentration is normalized to the no drug control to create the normalized stalling metric. The error on this measurement is determined by propagating error through the averaging and normalization steps. Values are plotted and fit for IC50 determination for each test sequence and titration of compound.
# MYC = experiment: In vitro transcription-translation (IVTT) assay, MYC reporter; settings: IVTT assay, HeLa S3 lysate, MYC reporter, normalized sfGFP/mCherry ratio; half-log dilutions 30 μM-0.1 μM, 2 hrs at 30° C.
# How it was run: as §1
# CCNTB1 = experiment: In vitro transcription-translation (IVTT) assay, CCNTB1 reporter; settings: HeLa S3 lysate, 2 hrs at 30° C.
# How it was run: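 HeLa S3 lysate-based coupled transcription-translation reactions with reporter plasmids, compounds in half-log dilutions (30 μM−0.1 μM, in DMSO), 2 h at 30° C. sfGFP/mCherry ratio, corrected for no-DNA background, normalized to no-drug control and fitted for IC50.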
# CCND1 = experiment: In vitro transcription-translation (IVTT) assay, CCND1 reporter; settings: IVTT, HeLa S3 lysate, 2 hrs at 30° C.
# How it was run: as §1
# CCNE1 [2] = experiment: In vitro transcription-translation (IVTT) assay, CCNE1 reporter; settings: HeLa S3 lysate, 2 hrs at 30° C.
# Method: Each preparation takes 8 cell pellets (4 ml packed volume each, approximately 1.0×10^9 cells per pellet). Thaw cell pellets from −80° C. on ice for 90 mins. Lay pellets horizontally on top of the ice and rotate every 30 mins to ensure even thawing. Once thawed, add 4 mL of cold lysis buffer to each pellet, and using a serological pipet, gently pipet up and down to break up clumps. Incubate resuspended cells in ice for an additional 30 mins (plunged into ice). During 30 min incubation, rinse and RNase-zap (Ambion) glass dounces (use loose pestle “A”), gently dry and place on ice until needed. Prepare RNase-free Eppendorf tubes for spinning and for batch storage. Add batch labels to 1.5-1.7 mL RNase-free microcentrifuge tubes (labeling scheme below). Each batch will have an extra 1.5-1.7 mL RNase-free microcentrifuge tube for 40 μL of lysate, label the top of this tube (labeling scheme below). After 30 min incubation, transfer all 8 mL of cell pellet to dounce. Cell lysis is complete after douncing 100 times. Aliquot cell lysis into 1.5-1.7 mL temporary-microcentrifuge tubes. Place tubes in centrifuge with “fins” out, and spin at 1,200×g for 5 mins. After the first spin use a 1 mL pipet to resuspend each tube and repeat spin. This acts as an additional lysis step, is more vigorous and increases lysate yield. During second spin get liquid N2 and a fresh conical tube on ice. After spin is complete, transfer supernatant (lysate) from microcentrifuge tubes into the 50 mL conical tube and keep on ice. Repeat steps 10-14 for all other cell pellets until completed. Once all cell lysate has been transferred to the 50 mL conical tube pipet to mix so the solution is homogenous. Transfer 1 mL of lysate into batch-labeled microcentrifuge tubes and flash freeze in liquid nitrogen. Be sure to pipet up and down to mix throughout transfer step. Place all tubes in the […] for long-term storage.
# as §2
# as §3, with “The error on this measurement is determined by propagating error through the averaging and normalization steps. Values are plotted and fit for IC50 determination for each test sequence and titration of compound.” left out
# [3] = IVTT assay, sfGFP/mCherry ratio
SMILES,IC50 (MCL-1; [3]) [µM],IC50 (CCNE1 [1]) [µM],IC50 (MYC) [µM],IC50 (CCNTB1) [µM],"IC50 (MCL-1; IVTT, 2 hrs at 30° C.) [µM]",IC50 (CCND1) [µM],IC50 (CCNE1 [2]) [µM]
"O=C(NCC[C@@H]1CCCCNC1)O[C@@H]1[C@@H](O)CN[C@@H]1Cc1ccc(-c2cnco2)cc1 [V193013, (2R,3S,4S)-4-hydroxy-2-{[4-(1,3-oxazol-5-yl)phenyl]methyl}pyrrolidin-3-yl N-{2-[(3S)-azepan-3-yl]ethyl}carbamate]",< 10,< 10,< 10,,,,
"O=C(NCc1cc(F)cc(F)c1)O[C@@H]1[C@@H](O)CN[C@@H]1Cc1ccc(-c2cnco2)cc1 [V193071, (2R,3S,4S)-4-hydroxy-2-(4-(oxazol-5-yl)benzyl)pyrrolidin-3-yl (3,5-difluorobenzyl)carbamate]",< 10,< 10,< 10,,,,
"O=C(NCC[C@@H]1CCNC1)O[C@@H]1[C@@H](O)CN[C@@H]1Cc1ccc(-c2cnco2)cc1 [V193011, (2R,3S,4S)-4-hydroxy-2-{[4-(1,3-oxazol-5-yl)phenyl]methyl}pyrrolidin-3-yl N-{2-[(3S)-pyrrolidin-3-yl]ethyl}carbamate]",< 10,< 10,< 10,,,,
"O=C(NCC[C@@H]1CCCN1)O[C@@H]1[C@@H](O)CN[C@@H]1Cc1ccc(-c2cnn(C(F)F)c2)cc1 [V193080, (2R,3S,4S)-2-(4-(1-(difluoromethyl)-1H-pyrazol-4-yl)benzyl)-4-hydroxypyrrolidin-3-yl (2-((S)-pyrrolidin-2-yl)ethyl)carbamate]",< 10,< 10,< 10,,,,
"O=C(NCc1cccc(OC(F)F)c1)O[C@@H]1[C@@H](O)CN[C@@H]1Cc1ccc(-c2cnco2)cc1 [V193068, (2R,3S,4S)-4-hydroxy-2-(4-(oxazol-5-yl)benzyl)pyrrolidin-3-yl (3-(difluoromethoxy)benzyl)carbamate]",< 10,< 10,< 10,,,,
"O=C(NCC[C@@H]1CCNC1)O[C@@H]1[C@@H](O)CN[C@@H]1Cc1ccc(C(F)F)cc1 [V193010, (2R,3S,4S)-2-(4-(difluoromethyl)benzyl)-4-hydroxypyrrolidin-3-yl (2-((S)-pyrrolidin-3-yl)ethyl)carbamate]",10 to 20,< 10,< 10,,,,
"O=C(NCC[C@@H]1CCN1)O[C@@H]1[C@@H](O)CN[C@@H]1Cc1ccc(-c2cnco2)cc1F [V192990, (2R,3S,4S)-2-(2-fluoro-4-(oxazol-5-yl)benzyl)-4-hydroxypyrrolidin-3-yl (2-((S)-azetidin-2-yl)ethyl)carbamate]",< 10,< 10,< 10,,,,
"O=C(NCc1cccc(F)c1)O[C@@H]1[C@@H](O)CN[C@@H]1Cc1ccc(-c2cnn(C(F)F)c2)cc1 [V193079, (2R,3S,4S)-2-(4-(1-(difluoromethyl)-1H-pyrazol-4-yl)benzyl)-4-hydroxypyrrolidin-3-yl (3-fluorobenzyl)carbamate]",< 10,< 10,< 10,,,,
"N#Cc1csc(-c2ccc(C[C@H]3NC[C@H](O)[C@H]3OC(=O)NCc3cccc(F)c3)cc2)c1 [V193129, (2R,3S,4S)-2-(4-(4-cyanothiophene-2-yl)benzyl)-4-hydroxypyrrolidin-3-yl (3-fluorobenzyl)carbamate]",< 10,< 10,< 10,,,,
"O=C(NCC[C@@H]1CCN1)O[C@@H]1[C@@H](O)CN[C@@H]1Cc1ccc(-c2cnco2)c(F)c1 [V192991, (2R,3S,4S)-2-(3-fluoro-4-(oxazol-5-yl)benzyl)-4-hydroxypyrrolidin-3-yl (2-((S)-azetidin-2-yl)ethyl)carbamate]",< 10,< 10,< 10,,,,
"O=C(NCc1ccc2c(c1)CNC2)O[C@@H]1[C@@H](O)CN[C@@H]1Cc1ccc(-c2cc(C(F)F)cs2)cc1 [V193165, (2R,3S,4S)-2-(4-(4-(difluoromethyl)thiophen-2-yl)benzyl)-4-hydroxypyrrolidin-3-yl (isoindolin-5-ylmethyl)carbamate]",< 10,< 10,< 10,,,,
"O=C(NCc1cc[nH]c(=O)c1)O[C@@H]1[C@@H](O)CN[C@@H]1Cc1ccc(Cl)cc1 [V188274, (2R,3S,4S)-2-[(4-chlorophenyl)methyl]-4-hydroxypyrrolidin-3-yl N-[(2-oxo-1H-pyridin-4-yl)methyl]carbamate]",,,< 10,< 10,< 10,< 10,< 10
"O=C(NCc1cnoc1)O[C@@H]1[C@@H](O)CN[C@@H]1Cc1ccc(Cl)cc1 [V188289, (2R,3S,4S)-2-[(4-chlorophenyl)methyl]-4-hydroxypyrrolidin-3-yl N-(1,2-oxazol-4-ylmethyl)carbamate]",,,< 10,< 10,< 10,< 10,< 10
"COc1ccc(C[C@H]2NC[C@H](O)[C@H]2OC(=O)NCCn2ccnc2N)cc1 [V188086, (2R,3S,4S)-4-hydroxy-2-[(4-methoxyphenyl)methyl]pyrrolidin-3-yl N-[2-(2-aminoimidazole-1-yl)ethyl]carbamate]",,,10 to 20,< 10,10 to 20,10 to 20,< 10
"COc1ccc(C[C@H]2NC[C@H](O)[C@H]2OC(=O)NC[C@H]2CCN(c3ncccn3)C2)cc1 [V188171, (2R,3S,4S)-4-hydroxy-2-[(4-methoxyphenyl)methyl]pyrrolidin-3-yl N-{[(3R)-1-(pyrimidin-2-yl)pyrrolidin-3-yl]methyl}carbamate]",,,10 to 20,< 10,< 10,10 to 20,10 to 20
"COc1ccc(C[C@H]2NC[C@H](O)[C@H]2OC(=O)NCc2ccnc(N3CCC3)c2)cc1 [V188225, (2R,3S,4S)-4-hydroxy-2-[(4-methoxyphenyl)methyl]pyrrolidin-3-yl N-{[2-(azetidin-1-yl)pyridin-4-yl]methyl}carbamate]",,,< 10,< 10,< 10,< 10,< 10
"COc1ccc(C[C@H]2NC[C@H](O)[C@H]2OC(=O)NCc2ccc3cn[nH]c3c2)cc1 [V188151, (2R,3S,4S)-4-hydroxy-2-[(4-methoxyphenyl)methyl]pyrrolidin-3-yl N-(1H-indazol-6-ylmethyl)carbamate]",,,< 10,< 10,< 10,< 10,< 10

# — US20250129021A1, “SMALL MOLECULE PROTEIN SYNTHESIS MODULATORS” (Interdict Bio, Inc., priority 2023, published 2025)
